The nature of data set [1]: Molar enthalpy of transition or fusion. Conditions: Crystal; DSC.
For data set [2] the following is noted: Crystal; DSC.

Structures are written as SMILES. Numbers after ± are expanded uncertainties.

This note sets out measurements from the NIST ThermoML archive (doi:10.1021/acs.jced.8b01044).

As to `CCCCCCCCCCCC(=O)O` [dodecanoic acid], the “Molar enthalpy of transition or fusion” value in data set [1] is 8.54 ± 0.598 kcal/mol. Further, the Triple point temperature in data set [2] turned out to be 317.71 ± 0.93 K.
For `CCCCCCCCCCCCCCCC(=O)O` [hexadecanoic acid], in data set [1], the “Molar enthalpy of transition or fusion” value was determined as 12.1 ± 0.765 kcal/mol. In data set [2], the Triple point temperature came to 336.13 ± 0.93 K.
Turning to `CCCCCCCCCCCCCCCCCC(=O)O` [octadecanoic acid], the “Molar enthalpy of transition or fusion” value in data set [1] was found to be 14.5 ± 0.86 kcal/mol. In addition, the Triple point temperature in data set [2] was 344.08 ± 0.93 K.
